# Patent US8034812B2, “Imidazopyridazine derivative having kinase inhibitory activity and pharmaceutical agent thereof” (Takeda Pharmaceutical Company Limited, priority 2006, dated 2011)
# Molecular target: T1, BRAF (V600E) enzyme (Homo sapiens, UniProt P15056, V600E)
# T1 construct: area encoding the BRAF kinase domain region, so that the protein contains an N-terminal Flag; made in house; host or cells: SF-21 insect cells, recombinant baculovirus BAC-V600E
# Experiment: Determination of BRAF (V600E) kinase inhibitory activity ([γ-32P]ATP, GST-MEK1 (K96R) substrate)
# Assay type: biochemical
# Details: read-out: BRAF (V600E) kinase inhibitory rate
# Protocol: Human BRAF gene was cloned by PCR using human Testis cDNA library (Clontech) as a template. The primer used for PCR was prepared from base sequence (Genbank Accession NM_004333) information of BRAF gene by adding a base sequence encoding flag peptide and a recognition sequence of the restriction enzyme to area encoding the BRAF kinase domain region, so that the protein contains an N-terminal Flag. The primer base sequence is shown below.
# The PCR reaction was conducted using Pyrobest (Takara Shuzo Co., Ltd). The obtained PCR product was electrophoresed on agarose gel (1%), the DNA fragment amplified by PCR was recovered from the gel, and then digested with restriction enzymes EcoRI and SalI. The DNA treated with the restriction enzymes was electrophoresed on agarose gel (1%), and the obtained DNA fragment was recovered and ligated to plasmid pFASTBAC1 (Invitrogen) digested with restriction enzymes EcoRI and SalI to give expression plasmid pFB-BRAF, and the base sequence of the insert fragment was confirmed. In addition, mutation was introduced into V600E using a Quick change Site Directed Mutagenesis kit (Stratagene). The nucleotide sequences of the primers used are shown in the following.
# SF-21 cells were sown at 1×10^6 cells/mL to Sf-900II SFM medium (1 L, Invitrogen) containing 10% fetal bovine serum (Trace), 50 mg/L Gentamicin (Invitrogen) and 0.1% Pluronic F-68 (Invitrogen), and shaking culture was performed using a 2 L volume Erlenmeyer flask at 27° C., 100 rpm. After culturing for 24 hrs, recombinant baculovirus BAC-V600E (13.4 mL) was added to the mixture, and the mixture was further cultured for 3 days. The culture medium was centrifuged at 2,000 rpm for 5 min to give virus-infected cells. The infected cells were washed with a phosphate buffered saline (Invitrogen), centrifuged under the same conditions, and the cells were preserved at −80° C. The cryopreserved cells were thawed in ice, suspended in buffer A (50 mM Tris buffer (30 mL, pH 7.4) containing 20% glycerol, 0.15 M NaCl) supplemented with Complete Protease Inhibitor (Boehringer), and ruptured 3 times with a Polytron homogenizer (Kinematica) at 20,000 rpm for 30 sec. The ruptured medium was clarified by centrifugation at 40,000 rpm for 30 min and filtered with a 0.45 μm filter. The filtrate was passed through a column packed with Anti-FLAG M2 Affinity Gel (4 mL, Sigma) at a flow rate of about 0.5 mL/min. The column was washed with buffer A, and eluted with buffer A containing 100 μg/mL of FLAG peptide. The buffer of this concentrate was exchanged using NAP25 column (Amersham Bioscience) equilibrated with buffer A and the fractions were cryopreserved at −80° C.
# A test compound (2.5 μl) dissolved in dimethyl sulfoxide (DMSO) was added to 37.5 μl of a reaction solution (25 mM HEPES (pH 7.5), 10 mM magnesium acetate, 1 mM dithiothreitol) containing BRAF (V600E) enzyme (30 ng) and recombinant type protein GST-MEK1 (K96R) 250 ng, and the mixture was incubated at room temperature for 10 min. ATP solution (10 μl) (2.5 μM ATP, 0.1 μCi [γ-^32P]ATP) was added to the obtained mixture, and the mixture was reacted at room temperature for 20 min. The reaction was quenched by adding 50 μL of ice-cooled 20% trichloroacetic acid (Wako Pure Chemical Industries, Ltd.). The reaction solution was allowed to stand at 4° C. for 30 min, and the acid-precipitable fraction was transferred to GF/C filter plate (Millipore Corporation) using cell harvester (PerkinElmer). The plate was dried at 45° C. for 60 min, and 40 μL of MicroScinti 0 (PerkinElmer) was added thereto. The radioactivity was measured using TopCount (PerkinElmer). The kinase inhibitory rate (%) of the test compound was calculated by the following formula: Inhibitory rate(%)=(1−(count of test compound−blank)÷(control−blank))×100
# The count of the solution reacted without addition of the compound was used as a “control”, and the count of the solution without the compound and enzyme was used as a “blank”. […]
# T1 sequence (P15056 457-717 V600E limits assumed): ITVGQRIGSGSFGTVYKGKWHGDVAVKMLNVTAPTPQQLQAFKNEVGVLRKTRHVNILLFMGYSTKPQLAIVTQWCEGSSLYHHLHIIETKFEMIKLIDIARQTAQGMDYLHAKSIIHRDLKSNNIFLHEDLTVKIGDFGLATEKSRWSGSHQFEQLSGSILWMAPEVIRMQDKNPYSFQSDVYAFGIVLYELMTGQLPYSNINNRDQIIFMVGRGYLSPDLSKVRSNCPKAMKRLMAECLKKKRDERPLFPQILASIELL
row,inhibition at 1 µM,SMILES
1,≥ 90%,"Cc1ccc(Oc2ccc3nc(NC(=O)C4CC4)cn3n2)cc1NC(=O)c1cccc(C(C)(C)C#N)c1 [Example 330, 3-(1-cyano-1-methylethyl)-N-[5-({2-[(cyclopropylcarbonyl)amino]imidazo[1,2-b]pyridazin-6-yl}oxy)-2-methylphenyl]benzamide]"
2,≥ 90%,"O=C(Nc1cccc(Sc2ccc3nc(NC(=O)C4CC4)cn3n2)c1)c1cccc(C(F)(F)F)c1 [Example 427, N-[3-({2-[(cyclopropylcarbonyl)amino]imidazo[1,2-b]pyridazin-6-yl}thio)phenyl]-3-(trifluoromethyl)benzamide]"
3,≥ 90%,"O=C(Nc1cccc(Oc2ccc3nc(NC(=O)C4CC4)cn3n2)c1)c1cccc(C(F)(F)F)c1 [Example 319, N-[3-({2-[(cyclopropylcarbonyl)amino]imidazo[1,2-b]pyridazin-6-yl}oxy)phenyl]-3-(trifluoromethyl)benzamide]"
4,≥ 90%,"CNc1nccc(Nc2cn3nc(Oc4cccc(NC(=O)c5cccc(C(F)(F)F)c5)c4)ccc3n2)n1 [Example 70, N-{3-[(2-{[2-(methylamino)pyrimidin-4-yl]amino}imidazo[1,2-b]pyridazin-6-yl)oxy]phenyl}-3-(trifluoromethyl)benzamide]"
5,≥ 90%,"O=C(Nc1cccc(Oc2ccc3nc(NC(=O)C4CC4)cn3n2)c1)Nc1cccc(C(F)(F)F)c1 [Example 431, N-{6-[3-({[3-(trifluoromethyl)phenyl]carbamoyl}amino)phenoxy]imidazo[1,2-b]pyridazin-2-yl}cyclopropanecarboxamide]"
6,≥ 90%,"CN(C)CC(=O)Nc1cn2nc(Oc3cccc(NC(=O)c4cccc(C(F)(F)F)c4)c3)ccc2n1 [Example 398, N-[3-({2-[(N,N-dimethylglycyl)amino]imidazo[1,2-b]pyridazin-6-yl}oxy)phenyl]-3-(trifluoromethyl)benzamide]"
